tested on: AMPK; experiment: In vitro assay of AMPK activity (AlphaScreen, phosphorylation of human ACC1 fragment aa 1-120); type: biochemical; conditions: AMPK partially purified from HEK cells, 100 uM ATP, room temperature, 60 minutes, read-out: ED50 (the source's name)
Description: AMPK activity was measured by the phosphorylation of the amino-teminal fragment of human acetyl CoA carboxylase-type 1, amino acids 1-120. The fragment was expressed as a biotinylated fusion protein in E. coli. The enzyme assay was conducted in a 5 ul reaction mixture containing 60 mM HEPES, pH7.0, 50 mM NaCL, 1 mM DTT, 5 mM MgCL2, 0.05% Tween-20, 100 uM ATP and with 25 uM AMP as a positive control. The reaction was carried out at room temperature for 60 minutes and stopped by addition of 5 ul of stop solution consisting of 20 mM EDTA, 0.1% BSA, 1% Triton-X-100, 0.01% Tween-20, 100 mM Tris pH8.0, 1:5,000 dilution of internally producted anti-pS79 (acetyl CoA carboxylase-1) purified rabbit polyclonal antibody, 40 ug/ml of AlphaScreen (Perkin Elmer) Acceptor beads and 40 ug/ml of AlphaScreen (Perkin Elmer) donor beads. The reaction mixture was further incubated at RT for 2 hours and analyzed on Fusion-Alpha microplate analyzer.
The AMPK assay was performed in a 25 ul reaction volume with the same reaction buffer as AMPK alpha assay at 30 C for 30 minutes. The reaction was stopped with SDS-PAGE sample buffer. The phosphorylated-GST-ACC was subjected to western blot analysis with anti-phospho-serine 79-ACC1 antibody (Cell Signaling Technologies). AMPK used in the assays described above was partially purified (Blazquez, C. et. al.).
The AMP-activated protein kinase is involved in the regulation of ketone body production by astrocytes. J. Neurochem. 73: 1674 (1999)) from HEKs (a human embryonic kidney cell line) and unless otherwise specified, chemicals used in the above assay were supplied by Sigma.

Structure (SMILES)	EC50
N#Cc1c[nH]c2ccc(-c3ccc(-c4ccccc4O)cc3)cc12 [Compound 5, 5-(2-Hydroxybiphenyl)-1H-indole-3-carbonitrile]	≤ 10 µM
O/N=C/c1c[nH]c2ccc(-c3ccc(-c4ccccc4O)cc3)cc12 [Compound 6, 5-(2-Hydroxybiphenyl)-1H-indole-3-carbaldehyde oxime]	≥ 50 µM
O=Cc1c[nH]c2ccc(-c3ccc(-c4ccccc4O)cc3)cc12 [Compound 4, 5-(2-Hydroxybiphenyl)-1H-indole-3-carbaldehyde]	10 to 50 µM
N#Cc1c(O)nc2cccc(-c3ccc(-c4ccccc4O)cc3)c2c1O [Compound 3, 5-(2-Hydroxybiphenyl)-2,4-dihydroxyquinoline-3-carbonitrile]	≤ 10 µM
Oc1ccccc1-c1ccc(-c2ccc3[nH]ccc3c2)cc1 [Compound 1, 5-(2-Hydroxybiphenyl)-1H-indole]	10 to 50 µM
N#Cc1c(O)nc2ccc(-c3ccc(-c4ccccc4O)cc3)cc2c1O [Compound 2, 6-(2-Hydroxybiphenyl)-2,4-dihydroxyquinoline-3-carbonitrile]	≤ 10 µM

Continued, values first:

EC50	Structure (SMILES)
≤ 10 µM	N#Cc1c(O)nc2ncc(-c3ccc(-c4ccccc4O)cc3)cc2c1O [Compound 8, 6-(2-Hydroxybiphenyl)-2,4-dihydroxy-1,8-naphthyridine-3-carbonitrile]
≤ 10 µM	N#Cc1c(O)nc2nc(-c3ccc(-c4ccccc4O)cc3)[nH]c2c1O [Compound 7, 3-(2-Hydroxybiphenyl)-4,6-dihydroxyimidazo[5,4-b]pyridine-5-carbonitrile]
10 to 50 µM	N#Cc1c(O)cc2onc(-c3ccc(-c4ccccc4O)cc3)c2c1O [Compound 9, 3-(2-Hydroxybiphenyl)-4,6-dihydroxyisoxazolo[5,4-b]pyridine-5-carbonitrile]

From patent US8273744B2, “AMPK modulators” (priority 2008, dated 2012)
